Key:
mouse RORγ = molecular target: T1, mouse RORγ (Mus musculus, UniProt P51450); experiment: In vitro assay of inhibitory effect against RORγ transcriptional activity (GAL4-mRORγ LBD luciferase reporter gene assay in CHO cells); assay type: cell-based; conditions: for EC50: GAL4-mRORγ LBD luciferase reporter, CHO cells, read-out: LUC EC50 mRORγ; for mRORγ luciferase activity, %-of-control: value in parentheses beside the EC50 bound, vehicle-control 0.2% DMSO alone = 100%
T1 construct: mouse RORγ, from Ile251 to Lys516; expressed in transfected cells; host or cells: CHO cells (Chinese hamster ovary), transient co-transfection with pG5-Luc
T1 sequence (P51450 251-516): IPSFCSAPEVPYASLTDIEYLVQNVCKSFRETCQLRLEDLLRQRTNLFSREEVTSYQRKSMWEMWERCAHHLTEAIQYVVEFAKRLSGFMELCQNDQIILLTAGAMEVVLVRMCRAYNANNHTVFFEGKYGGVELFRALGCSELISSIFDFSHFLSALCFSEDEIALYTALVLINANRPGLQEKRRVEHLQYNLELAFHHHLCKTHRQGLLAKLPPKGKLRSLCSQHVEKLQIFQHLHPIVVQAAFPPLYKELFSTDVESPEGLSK
Summary of the method: (§1)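 Luciferase signal, expressed relative to 0.2% DMSO vehicle as 100%, was the read-out after a 2-day compound exposure of CHO cells co-expressing a GAL4-RORγ LBD fusion and a GAL4-responsive reporter. EC50 values came from curve fitting, omitting points showing cytotoxicity.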

human RORγ = molecular target: T2, human RORγ (Homo sapiens, UniProt P51449); experiment: In vitro assay of inhibitory effect against RORγ transcriptional activity (GAL4-hRORγ LBD luciferase reporter gene assay in CHO cells); assay type: cell-based; conditions: for EC50: GAL4-hRORγ LBD luciferase reporter, CHO cells, read-out: LUC EC50 hRORγ; for hRORγ luciferase activity, %-of-control: value in parentheses beside the EC50 bound, vehicle-control 0.2% DMSO alone = 100%
T2 construct: human RORγ, from Ser253 to Lys518; expressed in transfected cells; host or cells: CHO cells (Chinese hamster ovary), transient co-transfection with pG5-Luc
T2 sequence (P51449 253-518): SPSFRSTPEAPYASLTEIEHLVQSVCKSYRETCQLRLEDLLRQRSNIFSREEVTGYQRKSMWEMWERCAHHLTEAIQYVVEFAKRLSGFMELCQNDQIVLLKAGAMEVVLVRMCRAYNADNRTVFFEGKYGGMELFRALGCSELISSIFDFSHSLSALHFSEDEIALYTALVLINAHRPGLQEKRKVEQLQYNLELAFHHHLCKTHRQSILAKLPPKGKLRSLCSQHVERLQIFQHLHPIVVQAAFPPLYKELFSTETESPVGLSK
Summary of the method: as §1

| EC50 (mouse RORγ) [nM] | EC50 (human RORγ) [nM] | mRORγ luciferase activity, %-of-control (mouse RORγ) | hRORγ luciferase activity, %-of-control (human RORγ) | Structure (SMILES) |
| --- | --- | --- | --- | --- |
| 23 | 13 | – | – | CO[C@H]1C[C@H](N2C=C(C(C)(C)CCC(=O)O)[C@](C)(c3ccc(CCC(C)(C)C)c(Cl)c3)NC2=O)C1 [Example 197] |
| 26 | 12 | – | – | COC[C@H]1C[C@H](N2C=C(C(C)(C)CCC(=O)O)[C@](C)(c3ccc(CCC(C)(C)C)c(Cl)c3)NC2=O)C1 [Example 198] |
| 136 | 70 | – | – | CC(C)(C)CCc1ccc([C@]2(C)NC(=O)N(C3CCOCC3)C=C2[C@H]2C[C@@H](C(=O)O)C2)cc1Cl [Example 199] |
| 23 | 14 | – | – | CO[C@H]1C[C@H](N2C=C([C@H]3C[C@@H](C(=O)O)C3)[C@](C)(c3ccc(CCC(C)(C)C)c(Cl)c3)NC2=O)C1 [Example 200] |
| 51 | 60 | – | – | CC(C)CC1=CN(CCC(=O)O)C(=O)N[C@@]1(C)c1ccc(OCC(C)(C)C)c(Cl)c1F [Example 201] |
| 52 | 87 | – | – | CC(C)CCOc1ccc([C@]2(C)NC(=O)N(CCC(=O)O)C=C2CC(C)C)c(F)c1Cl [Example 202] |
| 21 | 30 | – | – | CC(C)C1=CN(c2ccc(C(=O)O)cc2)C(=O)N[C@@]1(C)c1ccc(COC(C)(C)C)c(Cl)c1 [Example 203] |
| 17 | 14 | – | – | CC(C)C1=CN(Cc2ccc(C(=O)O)cc2)C(=O)N[C@@]1(C)c1ccc(CCC(C)(C)C)c(Cl)c1 [Example 204] |
| 427 | 281 | – | – | CC(C)(C)CCc1ccc([C@]2(C)NC(=O)N([C@H]3C[C@H](C(=O)O)C3)C=C2[C@H]2C[C@@H](CO)C2)cc1Cl [Example 205] |
| 117 | 81 | – | – | COC[C@H]1C[C@@H](C2=CN(CCC(=O)O)C(=O)N[C@@]2(C)c2ccc(CCC(C)(C)C)c(Cl)c2)C1 [Example 206] |
| 18 | 9 | – | – | CC(C)C1=CN(c2ccc(C(=O)O)cc2F)C(=O)N[C@@]1(C)c1ccc(CCC(C)(C)C)c(Cl)c1 [Example 207] |
| 40 | 21 | – | – | CC(C)C1=CN(c2ccc(F)c(C(=O)O)c2)C(=O)N[C@@]1(C)c1ccc(CCC(C)(C)C)c(Cl)c1 [Example 208] |
| 74 | 51 | – | – | COCCC(C)(C)CC1=CN(c2ccc(C(=O)O)cc2)C(=O)N[C@@]1(C)c1ccc(CCC(C)(C)C)c(Cl)c1 [Example 209] |
| 7 | 6 | – | – | COCCC1=CN(c2ccc(C(=O)O)cc2)C(=O)N[C@@]1(C)c1ccc(CCC(C)(C)C)c(Cl)c1 [Example 210] |
| 8 | 11 | – | – | COCCC1=CN(CCC(=O)O)C(=O)N[C@@]1(C)c1ccc(CCC(C)(C)C)c(Cl)c1 [Example 211] |
| > 8000 | > 8000 | (81%) | (68%) | COc1cc([C@@]2(C)NC(=O)N(CCC(=O)O)C=C2C(C)C)ccc1CCC(C)(C)C [Example 212] |
| 56 | 131 | – | – | COc1cc([C@]2(C)NC(=O)N(CCC(=O)O)C=C2C(C)C)ccc1CCC(C)(C)C [Example 213] |
| 100 | 169 | – | – | CC(C)CSc1ccc([C@]2(C)NC(=O)N(CCC(=O)O)C=C2C(C)C)cc1Cl [Example 214] |
| > 20000 | > 20000 | (76%) | (86%) | CC(C)CCS(=O)(=O)c1ccc([C@]2(C)NC(=O)N(CCC(=O)O)C=C2C(C)C)cc1Cl [Example 216] |
| 122 | 376 | – | – | CC(C)CCSc1ccc([C@]2(C)NC(=O)N(CCC(=O)O)C=C2C(C)C)cc1Cl [Example 218] |
| > 20000 | > 20000 | (86%) | (88%) | CC(C)CS(=O)(=O)c1ccc([C@]2(C)NC(=O)N(CCC(=O)O)C=C2C(C)C)cc1Cl [Example 219] |
| 29 | 22 | – | – | Cc1cc(C(=O)O)ccc1N1C=C(C(C)C)[C@](C)(c2ccc(CCC(C)(C)C)c(Cl)c2)NC1=O [Example 220] |
| 24 | 25 | – | – | COc1cc(C(=O)O)ccc1N1C=C(C(C)C)[C@](C)(c2ccc(CCC(C)(C)C)c(Cl)c2)NC1=O [Example 221] |

| EC50 (mouse RORγ) [nM] | EC50 (human RORγ) [nM] | mRORγ luciferase activity, %-of-control (mouse RORγ) | hRORγ luciferase activity, %-of-control (human RORγ) | Structure (SMILES) |
| --- | --- | --- | --- | --- |
| 123 | 343 | – | – | CC(C)C1=CN(CCC(=O)O)C(=O)N[C@@]1(C)c1ccc(SC2CCCC2)c(Cl)c1 [Example 224] |
| 72 | 101 | – | – | COCCN1C=C(c2ccc(C(=O)O)cc2)[C@](C)(c2ccc(CCC(C)(C)C)c(Cl)c2)NC1=O [Example 225] |
| 20 | 17 | – | – | COc1cc(N2C=C(C(C)C)[C@](C)(c3ccc(CCC(C)(C)C)c(Cl)c3)NC2=O)ccc1C(=O)O [Example 226, 4-{(S)-4-[3-Chloro-4-(3,3-dimethyl-butyl)-phenyl]-5-isopropyl-4-methyl-2-oxo-3,4-dihydro-2H-pyrimidin-1-yl}-2-methoxy-benzoic Acid] |
| > 20000 | > 20000 | (87%) | (89%) | CC(C)C1=CN(CCC(=O)O)C(=O)N[C@@]1(C)c1ccc(S(=O)(=O)C2CCCC2)c(Cl)c1 [Example 227] |
| 32 | 32 | – | – | CC(C)C1=CN(C2(CC(=O)O)CC2)C(=O)N[C@@]1(C)c1ccc(CCC(C)(C)C)c(Cl)c1 [Example 228] |
| 18 | 9 | – | – | CC(C)(C)CCc1ccc([C@]2(C)NC(=O)N(C3CC(F)(F)C3)C=C2[C@H]2C[C@@H](C(=O)O)C2)cc1Cl [Example 229] |
| 76 | 225 | – | – | CC(C)N1C=C(CCC(=O)O)[C@](C)(c2ccc(CCC(C)(C)C)c(Cl)c2)NC1=O [Example 230] |
| 458 | 692 | – | – | CC(C)(C)CCc1ccc([C@]2(C)NC(=O)N(c3ccncc3)C=C2CCC(=O)O)cc1Cl [Example 231] |
| 534 | 964 | – | – | CC(C)C1=CN([C@@H]2CCC[C@@H]2C(=O)O)C(=O)N[C@@]1(C)c1ccc(CCC(C)(C)C)c(Cl)c1 [Example 234] |
| 1610 | > 3200 | – | (70%) | CC(C)C1=CN([C@@H]2CCCC[C@H]2C(=O)O)C(=O)N[C@@]1(C)c1ccc(CCC(C)(C)C)c(Cl)c1 [Example 235] |
| 15 | 20 | – | – | CC(C)C1=CN([C@H](C)CC(=O)O)C(=O)N[C@@]1(C)c1ccc(CCC(C)(C)C)c(Cl)c1 [Example 236] |
| 247 | 112 | – | – | CC(C)(C)CCc1ccc([C@]2(C)NC(=O)N(CCC(=O)O)C=C2[C@H]2C[C@@H](CO)C2)cc1Cl [Example 241] |
| 22 | 10 | – | – | CC(C)(C)CCc1ccc([C@]2(C)NC(=O)N(C3CCC(F)(F)CC3)C=C2[C@H]2C[C@@H](C(=O)O)C2)cc1Cl [Example 246] |
| 16 | 18 | – | – | CC(C)C1=CN([C@@H](C)CC(=O)O)C(=O)N[C@@]1(C)c1ccc(CCC(C)(C)C)c(Cl)c1 [Example 247] |
| 21 | 10 | – | – | CC(C)(C)CCc1ccc([C@]2(C)NC(=O)N(CC3CC(F)(F)C3)C=C2[C@H]2C[C@@H](C(=O)O)C2)cc1Cl [Example 248] |
| 779 | 412 | – | – | CC(C)(C)CCc1ccc([C@]2(C)NC(=O)N(CCC(N)=O)C=C2[C@H]2C[C@@H](C(=O)O)C2)cc1Cl [Example 249] |
| 114 | 42 | – | – | COCC1(N2C=C([C@H]3C[C@@H](C(=O)O)C3)[C@](C)(c3ccc(CCC(C)(C)C)c(Cl)c3)NC2=O)CC1 [Example 250] |
| 28 | 13 | – | – | CC(C)(C)CCc1ccc([C@]2(C)NC(=O)N(C3CC(C)(C)C3)C=C2[C@H]2C[C@@H](C(=O)O)C2)cc1Cl [Example 251] |
| 28 | 20 | – | – | CC(C)(C)CCc1ccc([C@]2(C)NC(=O)N(c3ccc(C(=O)O)cc3)C=C2C2CC(F)(F)C2)cc1Cl [Example 252] |
| 34 | 75 | – | – | CC(C)C1=CN(CCC(=O)O)C(=O)N[C@@]1(C)c1ccc(CCC(C)(C)C)cc1 [Example 253] |
| 16 | 22 | – | – | CC(C)C1=CN(CCC(=O)O)C(=O)N[C@@]1(C)c1ccc([C@H]2C[C@@H](C(C)C)C2)c(Cl)c1 [Example 258, 3-{(S)-4-[3-Chloro-4-(3-isopropyl-cyclobutyl)-phenyl]-5-isopropyl-4-methyl-2-oxo-3,4-dihydro-2H-pyrimidin-1-yl}-propionic Acid] |
| 43 | 57 | – | – | CC(C)C1=CN(C(C)(C)CC(=O)O)C(=O)N[C@@]1(C)c1ccc(CCC(C)(C)C)c(Cl)c1 [Example 259] |
| 492 | 439 | – | – | CC(C)C1=CN(CCC(=O)O)C(=O)N[C@@]1(C)c1ccc(CCC(C)(C)CO)c(Cl)c1 [Example 260] |
